Legend:
[1] = target: T1, NACHT, LRR and PYD domains-containing protein 3 (Homo sapiens, UniProt Q96P20); assay: Inhibition of NLRP3 in human THP-1 cells assessed as reduction in IL-1beta production measured after 3 hrs; type: cell-based
[2] = target: T1, NACHT, LRR and PYD domains-containing protein 3; assay: Inhibition of NLRP3 in human THP-1 cells assessed as reduction in IL-1beta production pre incubated for 3 hrs followed by nigericin addition measured after 1 hrs by resazurin staining based assay; type: cell-based
[3] = target: T1, NACHT, LRR and PYD domains-containing protein 3; assay: Inhibition of NLRP3 in human PBMC cells assessed as reduction in IL-1beta production preincubated for 30 mins followed by LPS addition measured after 6 hrs; type: cell-based
[4] = target: T1, NACHT, LRR and PYD domains-containing protein 3; assay: Inhibition of NLRP3 in human PBMC cells assessed as reduction in TNF alpha level preincubated for 30 mins followed by LPS addition measured after 6 hrs; type: cell-based
THP-1 [5] = assay: Induction of pyroptosis in human THP-1 cells; type: functional, cell-based
[6] = target: T2, NACHT, LRR and PYD domains-containing protein 3 (Mus musculus, UniProt Q8R4B8); assay: Inhibition of NLRP3 in LPS induced mouse BMDM cells assessed as reduction in IL-1beta production measured after 30 mins by ELISA assay; type: cell-based
[7] = target: T1, NACHT, LRR and PYD domains-containing protein 3; assay: Inhibition of NLRP3 in human THP-1 cells assessed as reduction in IL-1beta production measured after 1 hrs by ELISA assay; type: cell-based
[8] = target: T1, NACHT, LRR and PYD domains-containing protein 3; assay: Inhibition of NLRP3 in human MDM cells assessed as reduction in IL-1beta production measured after 3 hrs by AlphaLISA assay; type: cell-based
[9] = target: T1, NACHT, LRR and PYD domains-containing protein 3; assay: Inhibition of NLRP3 in human THP-1 cells assessed as reduction in IL-1beta production measured after 3 hrs by AlphaLISA assay; type: cell-based
[10] = target: T2, NACHT, LRR and PYD domains-containing protein 3; assay: Inhibition of NLRP3 in mouse BMDM cells assessed as reduction in IL-1beta production preincubated for 30 mins followed by ATP addition measured after 45 mins by ELISA assay; type: cell-based
[11] = target: T1, NACHT, LRR and PYD domains-containing protein 3; assay: Inhibition of NLRP3 in LPS induced human Whole blood cell assessed as reduction in IL-1beta production preincubated for 3 hrs followed by nigericin measured after 1 hrs by resazurin staining based assay; type: tissue-based
[12] = target: T2, NACHT, LRR and PYD domains-containing protein 3; assay: Inhibition of NLRP3 in mouse BMDM cells assessed as reduction in IL-1beta production measured after 3 hrs; type: cell-based
THP-1 [13] = assay: Induction of pyroptosis in human THP-1 cells by AlphaLisa assay; type: functional, cell-based
[14] = Oral bioavailability in Sprague-Dawley rat measured upto 24 hrs by LC-MS/MS analysis; type: ADME, organism-based; conditions: in vivo
THP-1 [15] = assay: Antiinflammatory activity against PMA-differentiated human THP-1 cells assessed as reduction of IL-1beta production measured after 2 hrs; type: functional, cell-based; conditions: THP-1, 2 h
[16] = target: T1, NACHT, LRR and PYD domains-containing protein 3; assay: Inhibition of NLRP3 in human THP-1 cells assessed as reduction in IL-1beta production; type: cell-based
[17] = Inhibition of NLRP3 in LPS induced PBMC (unknown origin) assessed as reduction in IL-1beta production preincubated 0.5 hrs followed by nigericin addition measured after 1 hrs by ELISA assay; type: cell-based
[18] = target: T2, NACHT, LRR and PYD domains-containing protein 3; assay: Inhibition of NLRP3 in mouse BMDM cells assessed as reduction in IL-1beta production; type: cell-based
[19] = target: T2, NACHT, LRR and PYD domains-containing protein 3; assay: Inhibition of NLRP3 in mouse BMDM assessed as reduction in IL-1beta production preincubated for 3 hrs followed by ATP measured after 45 mins by ELISA assay; type: cell-based
[20] = target: T2, NACHT, LRR and PYD domains-containing protein 3; assay: Inhibition of NLRP3 in LPS induced mouse BV-2 cells assessed as reduction in IL-1beta production pretreated for 30 mins followed by nigericin addition measured after 2 hrs by ELISA assay; type: cell-based
[21] = target: T1, NACHT, LRR and PYD domains-containing protein 3; assay: Inhibition of NLRP3 in human THP-1 cells assessed as reduction in IL-1beta production by ELISA; type: cell-based

T1 sequence (Q96P20 whole entry, the tested form may be a part): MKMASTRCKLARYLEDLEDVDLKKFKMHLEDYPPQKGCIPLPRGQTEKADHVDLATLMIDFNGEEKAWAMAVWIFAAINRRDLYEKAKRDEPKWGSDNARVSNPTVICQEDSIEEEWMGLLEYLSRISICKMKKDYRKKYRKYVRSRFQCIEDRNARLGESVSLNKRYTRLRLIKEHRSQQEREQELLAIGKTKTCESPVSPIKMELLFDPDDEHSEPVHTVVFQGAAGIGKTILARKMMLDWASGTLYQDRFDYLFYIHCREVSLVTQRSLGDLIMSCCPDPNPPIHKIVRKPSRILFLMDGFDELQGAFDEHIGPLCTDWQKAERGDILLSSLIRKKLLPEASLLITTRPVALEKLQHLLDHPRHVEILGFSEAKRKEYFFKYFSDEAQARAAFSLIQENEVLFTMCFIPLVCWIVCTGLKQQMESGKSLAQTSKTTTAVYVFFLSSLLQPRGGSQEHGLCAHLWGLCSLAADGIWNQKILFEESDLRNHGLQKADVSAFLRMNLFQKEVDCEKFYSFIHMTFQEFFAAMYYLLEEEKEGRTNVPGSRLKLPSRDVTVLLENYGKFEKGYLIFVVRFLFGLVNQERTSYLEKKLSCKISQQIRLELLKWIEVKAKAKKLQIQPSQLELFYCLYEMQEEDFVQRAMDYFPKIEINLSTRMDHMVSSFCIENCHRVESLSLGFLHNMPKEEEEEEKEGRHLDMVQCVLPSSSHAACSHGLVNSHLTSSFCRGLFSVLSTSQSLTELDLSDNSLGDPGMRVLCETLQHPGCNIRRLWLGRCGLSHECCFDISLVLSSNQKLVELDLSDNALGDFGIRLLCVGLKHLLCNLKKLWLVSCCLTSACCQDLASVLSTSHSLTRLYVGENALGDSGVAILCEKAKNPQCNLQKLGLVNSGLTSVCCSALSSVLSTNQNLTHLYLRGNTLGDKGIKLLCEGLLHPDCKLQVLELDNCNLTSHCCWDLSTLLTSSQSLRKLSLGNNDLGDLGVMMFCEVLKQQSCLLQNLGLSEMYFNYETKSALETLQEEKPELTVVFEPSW
T2 sequence (Q8R4B8 whole entry, the tested form may be a part): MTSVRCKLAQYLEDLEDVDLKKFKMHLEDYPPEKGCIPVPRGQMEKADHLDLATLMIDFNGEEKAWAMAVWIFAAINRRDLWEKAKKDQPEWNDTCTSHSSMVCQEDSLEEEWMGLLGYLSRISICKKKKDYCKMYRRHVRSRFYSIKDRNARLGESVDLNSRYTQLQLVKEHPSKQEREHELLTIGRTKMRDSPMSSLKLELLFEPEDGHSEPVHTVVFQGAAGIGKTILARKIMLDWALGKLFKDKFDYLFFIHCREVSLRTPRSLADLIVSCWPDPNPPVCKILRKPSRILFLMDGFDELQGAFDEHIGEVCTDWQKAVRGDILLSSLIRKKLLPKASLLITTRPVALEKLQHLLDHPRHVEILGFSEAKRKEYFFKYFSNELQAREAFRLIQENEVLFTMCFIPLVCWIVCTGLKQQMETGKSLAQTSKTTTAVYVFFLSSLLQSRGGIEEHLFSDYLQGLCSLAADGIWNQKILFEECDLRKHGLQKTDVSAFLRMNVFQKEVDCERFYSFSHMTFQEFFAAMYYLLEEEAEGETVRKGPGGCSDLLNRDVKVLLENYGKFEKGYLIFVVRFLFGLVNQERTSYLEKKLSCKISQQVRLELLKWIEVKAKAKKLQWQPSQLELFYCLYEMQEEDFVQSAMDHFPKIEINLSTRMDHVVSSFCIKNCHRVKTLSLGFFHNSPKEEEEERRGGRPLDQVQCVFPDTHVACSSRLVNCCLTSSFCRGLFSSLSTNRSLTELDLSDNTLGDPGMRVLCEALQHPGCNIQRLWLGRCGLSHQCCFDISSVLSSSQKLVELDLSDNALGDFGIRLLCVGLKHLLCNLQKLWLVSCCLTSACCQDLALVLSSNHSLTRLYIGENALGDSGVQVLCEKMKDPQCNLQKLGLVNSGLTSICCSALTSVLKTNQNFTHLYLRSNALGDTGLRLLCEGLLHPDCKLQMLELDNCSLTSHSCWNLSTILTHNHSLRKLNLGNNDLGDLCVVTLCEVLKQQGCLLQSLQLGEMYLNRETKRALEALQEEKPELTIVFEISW

CS(=O)(=O)NC(=O)Nc1c(-c2ccnc(OC3CCN(Cc4ccccc4)CC3)c2)ccc2c1CCC2
IC50 [1]: ≤ 250 nM

CN1CCC(Oc2cc(-c3ccc4c(c3NC(=O)NS(=O)(=O)C3CC3)CCC4)ccn2)CC1
IC50 [2]: ≤ 250 nM

CC(C)c1cc(NC(=O)NS(=O)(=O)C(c2cnn(C)c2)C2CCCN(C)C2)c(C(C)C)s1 (centres undefined)
IC50 [1]: < 100 nM

CC(C)c1nn(CC(=O)Nc2ccncn2)c(=O)c2cc(I)nn12
IC50 [3]: < 12 nM | IC50 [4]: > 10000 nM

COc1cc(C)c(S(=O)(=O)NC(=O)Nc2c3c(cc4c2CCC4)CCC3)cn1
IC50 [2]: < 1000 nM

CN1CCC[C@@H](Nc2nnc(-c3ccc(C(F)(F)F)cc3O)c3c2ncn3C)C1
EC50 (THP-1 [5]): < 20 nM

NS(=O)(=O)c1cccc(/C=C2\SC(=S)N(CC3CCCCC3)C2=O)c1
IC50 [6]: 900 nM

CC(C)c1nn(C(C)C(=O)Nc2ncc(F)cn2)c(=O)c2ccc(Br)cc12 (centres undefined)
IC50 [7]: 3660 nM

CC(C)c1nn(CC(=O)Nc2ccc3nncn3n2)c(=O)cc1Nc1ccccc1
EC50 [3]: > 15000 nM

CC(C)(O)c1ccc2c(c1)[S+]([O-])(NC(=O)Nc1c3c(cc4c1CCC4)CCC3)=NC2=O (centres undefined)
IC50 [8]: < 1000 nM

CC(C)c1cc(F)cc2c1CC(=O)NS(=O)(=O)c1ccn(n1)C(C)(C)COc1cc-2ccn1
IC50 [9]: ≤ 100 nM

CC(C)c1cc(F)cc(C(C)C)c1NC(=O)NS(=O)(=O)c1cc2c(o1)CCCC2(C)O (centres undefined)
IC50 [10]: < 100 nM

COc1cc(-c2ccc3c(c2NC(=O)NS(=O)(=O)c2cn(C(C)C)c(=O)cn2)CCC3)ccn1
IC50 [11]: < 1000 nM

CC1(O)CCCc2oc(S(=O)(=O)NC(=O)Nc3c4c(c(Br)c5c3CCC5)CCC4)cc21 (centres undefined)
IC50 [12]: < 100 nM

CC(C)c1nn(CC(=O)Nc2ccc3nncn3c2)c(=O)c2sc(C3CC3)nc12
IC50 [4]: 4990 nM

Cc1cc(Cl)cc(O)c1-c1ccc2oc(N[C@H]3CCCN4CCC[C@H]34)nc2n1
IC50 (THP-1 [13]): 0.6 nM

CCN1CCC[C@@H](Nc2nc3nc(-c4c(C)cc(Cl)cc4O)ccc3o2)C1
IC50 (THP-1 [13]): 0.4 nM

CN1CCC[C@@H](Nc2nnc(-c3ccc(C(F)(F)F)cc3O)c3ncn(C)c23)C1
EC50 (THP-1 [5]): < 20 nM

CCN1CCC(S(=O)(=O)NC(=O)Nc2c3c(cc4c2CCC4)CCC3)CC1 [SELNOFLAST]
bioavailability [14]: 76.7% | IC50 [2]: ≤ 1000 nM

O=C(Nc1c2c(cc3c1CC3)CCC2)NS(=O)(=O)c1cnn2c1OCCC2
IC50 (THP-1 [15]): 200 nM

Cc1cc(Br)cc(C)c1-n1cc2c(=O)[nH]c(N3C=COCC3)nc2n1
IC50 [16]: 3 nM

CCOC(=O)C(Cn1cc(F)cn1)OC(=O)Nc1c2c(cc3c1CCC3)CCC2 (centres undefined)
IC50 [17]: < 10 nM

O=C(CBr)C1CCC1
IC50 [18]: ~5000 nM

CC(C)OC(=O)C(Cc1ncccn1)OC(=O)N[C@@H](C)c1ccc(C(F)(F)F)cc1 (some centres undefined)
IC50 [17]: < 1000 nM

CC(C)c1nn(C2(C(=O)Nc3ncccn3)CC2)c(=O)cc1-c1cc(F)cc(F)c1
IC50 [7]: 1140 nM

Cc1cc(Cl)cc(O)c1-c1ccc2oc(N[C@@H]3CCCN4CCC[C@@H]34)nc2n1
IC50 (THP-1 [13]): 27.4 nM

C[C@@]1(O)CCCc2oc(S(=O)(=O)NC(=O)Nc3c4c(cc5c3CCC5)CCC4)cc21
IC50 [19]: < 100 nM

Cc1nc(C(C)C)c(NC(=O)NS(=O)(=O)c2cc(C(C)(C)O)co2)n1-c1ccncc1
IC50 [16]: ≤ 250 nM

COC(=O)c1cccc(C(=O)NC2(C(=O)Nc3c4c(cc5c3CCC5)CCC4)CC2)c1
IC50 [20]: 2050 nM

CN(C)Cc1cc(S(=O)(=O)NC(=O)Nc2c3c(cc4c2CCC4)CCC3)nn1C1CC1
IC50 [2]: ≤ 40 nM

CN1CCC[C@@H](Nc2nnc(-c3ccc(C(F)(F)F)cc3O)c3c2nc(C2CC2)n3C)C1
EC50 (THP-1 [5]): < 20 nM

CC1(C)CCc2c1cc1c(c2NC(=O)NS(=O)(=O)c2ccnn2CCCB(O)O)CCC1
IC50 [21]: < 1000 nM
